# Measured values reported in patent publication US8431378B2, “Aminotransferase, gene encoding the same, and methods of using them” (Kaneka Corporation, priority 2005, dated 2013).
# Entries after “also recorded” stand apart in the source; their conditions may differ.
# Key:
# [1] = target: T1, ω-Amino Acid: Pyruvic Acid Transaminase (Pseudomonas putida, UniProt P28269); conditions: amino group receptor pyruvic acid; values from the literature; cited from earlier work
# T1 sequence (P28269 1-449): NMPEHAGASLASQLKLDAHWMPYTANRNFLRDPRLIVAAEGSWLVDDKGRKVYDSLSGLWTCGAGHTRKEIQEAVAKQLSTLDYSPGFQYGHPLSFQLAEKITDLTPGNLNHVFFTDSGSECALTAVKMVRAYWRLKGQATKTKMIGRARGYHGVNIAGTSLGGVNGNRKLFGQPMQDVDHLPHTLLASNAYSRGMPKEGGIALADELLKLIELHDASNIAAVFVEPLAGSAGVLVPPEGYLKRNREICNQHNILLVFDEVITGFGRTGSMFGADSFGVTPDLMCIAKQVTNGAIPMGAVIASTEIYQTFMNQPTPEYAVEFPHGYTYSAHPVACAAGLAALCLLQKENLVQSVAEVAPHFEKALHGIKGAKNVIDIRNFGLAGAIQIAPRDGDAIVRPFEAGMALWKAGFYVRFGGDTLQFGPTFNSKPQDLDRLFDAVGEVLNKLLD
# [2] = system: MTA (present invention); test: Substrate specificity, comparison with ω-amino acid transaminase (Example 7), Enzyme A; type: biochemical, Pseudomonas fluorescens KNK08-18; conditions: for Reactivity as amino donor (in words): Enzyme A (MTA), receptor pyruvic acid or 2-ketoglutaric acid; for Relative activity, Enzyme A: donor 14 mM, activity with (S)-α-phenethylamine is 100
# Procedure: The purified enzyme obtained in Example 1 was analyzed in terms of its reactivity to typical substrates of ω-amino acid transaminase. Firstly, 20 μL of a purified enzyme solution having a protein concentration of 0.2 mg/mL was added to 380 μL of a substrate solution having the following composition. After carrying out reaction at 30° C. for 1 hour therein, 20 μL of 3N hydrochloric acid was added therein to stop the reaction. Then, into 20 μL of the resultant reaction mixture, a 0.2M sodium carbonate aqueous solution of 80 μL and an acetone solution of 200 μL containing dabsyl chloride by 3.3 mg/mL were added. Then, the resultant mixture was reacted at 70° C. for 10 min. After 20 μL of acetic acid was added therein with stirring. The reaction mixture thus obtained was analyzed by high-performance liquid chromatography thereby to quantitatively analyze dabsylated alanine or […]. Results of the analysis are shown in Table 5, in which the relative activities are shown where the activity with (S)-α-phenethylamine as the amino donor is 100. In Table 5, the values of activities of ω-amino acid:pyruvic acid transaminase and 4-amino butyric acid: 2-ketoglutaric acid transaminase are from the literatures “Agric. Biol. Chem. 41, 1701-1706 (1977), Arch. Biochem. Biophys. 200, 156-164 (1980)”.
# (§1) [Substrate Solution Composition]
# Pyruvic acid or 2-ketoglutaric acid 14 mM
# (§2) Pyridoxal phosphate 0.02 mM
# (§3) Potassium Phosphate Buffer (pH 7.5) 0.1M
# (§4) [High-Performance Liquid Chromatography Analysis Conditions]
# (§5) Column: Deverosil ODS-HG-3 (Nomura Chemical Co., Ltd.)
# (§6) Carrier: Acetonitrile/0.045M acetate buffer (pH 4.1)=35/65 (by volume)
# [3] = system: purified enzyme MTA (aminotransferase); test: Specificity for amino donor, pyruvic acid as acceptor, dabsylated alanine quantified (Example 4); type: biochemical, Pseudomonas fluorescens KNK08-18; conditions: for Amino group transfer activity as amino donor (in words): acceptor pyruvic acid; for Relative Activity (%): amino donor varied, 14 mM, acceptor 14 mM pyruvic acid, pH 7.5, 30° C., 1 hour, activity with (S)-α-phenethylamine is 100
# Procedure: The amino group transfer activity measurement is carried out as follows: Firstly, 20 μL of a purified enzyme solution having a protein concentration of 0.2 mg/mL is added to 380 μL of a substrate solution having the following composition. After carrying out reaction at 30° C. for 1 hour therein, 20 μL of 3N hydrochloric acid is added therein to stop the reaction. Then, into 20 μL of the resultant reaction mixture, a 0.2M sodium carbonate aqueous solution of 80 μL and an acetone solution of 200 μL containing dabsyl chloride by 3.3 mg/mL are added. Then, the resultant mixture is reacted at 70° C. for 10 min. After 20 μL of acetic acid is added therein with stirring. The reaction mixture thus obtained is analyzed by high-performance liquid chromatography thereby to quantitatively analyze dabsylated alanine.
# The purified enzyme obtained in Example 1 was analyzed in terms of its reactivity to typical substrates of ω-amino acid transaminase. Firstly, 20 μL of a purified enzyme solution having a protein concentration of 0.2 mg/mL was added to […] of a substrate solution having the following composition. After carrying out reaction at 30° C. for 1 hour therein, 20 μL of 3N hydrochloric acid was added therein to stop the reaction. Then, into 20 μL of the resultant reaction mixture, a 0.2M sodium carbonate aqueous solution of 80 μL and an acetone solution of 200 μL containing dabsyl chloride by 3.3 mg/mL were added. Then, the resultant mixture was reacted at 70° C. for 10 min. After 20 μL of acetic acid was added therein with stirring. The reaction mixture thus obtained was analyzed by high-performance liquid chromatography thereby to quantitatively analyze dabsylated alanine. Results of the analysis are shown in Table 2, which the amino group transfer activities are shown as relative activities where the activity with (S)-α-phenethylamine as the amino donor is 100.
# as §1, §2, §3, §4, §5, §6
# [4] = system: purified enzyme MTA (aminotransferase); test: Specificity for amino donor, 7-methoxy-2-tetralone as amino acceptor (Example 3); type: biochemical, Pseudomonas fluorescens KNK08-18; conditions: for Relative Activity (%): amino donor varied, 14 mM (racemic 28 mM), acceptor 14 mM 7-methoxy-2-tetralone, 30° C., 1 hour, activity with (S)-α-phenethylamine is 100
# Procedure: In 20 μL of the purified Enzyme, 380 μL of a 0.1M potassium phosphate buffer containing 14 mM of 7-methoxy-2-tetralone and 14 mM (in case of the racemic amine compound, 28 mM)) of an amine compound of various type was added. After the mixture was reacted at 30° C. for 1 hour, 20 μL of 3N hydrochloric acid was added therein to stop the reaction. The reaction solution thus obtained was analyzed via high-performance liquid chromatography so as to quantitatively analyze 7-methoxy-2-aminotetralin thus obtained. Thereby, the amino group transfer activities with the various amino compounds were analyzed.
# [Analysis Conditions of High-Performance Liquid Chromatography]
# • Column: Cosmosil 5C8-MS (Nacalai Tesque Inc.) • Carrier: 30 mM potassium phosphate buffer (pH 2.5)/acetonitrile/methanol=4/1/1 (by volume) • Flow Rate: 0.9 mL/min • Detection: 254 nm
# [5] = system: 4-Aminobutylic Acid: 2-Ketoglutaric Acid Transaminase; conditions: amino group receptor 2-ketoglutaric acid; values from the literature; cited from earlier work
# [6] = amino group receptor pyruvic acid 14 mM
# [7] = amino group receptor 2-ketoglutaric acid 14 mM
Structure (SMILES),"Relative activity, Enzyme B [1]",Reactivity as amino donor (in words) [2],"Relative activity, Enzyme A [2, 6]",Amino group transfer activity as amino donor (in words) [3],Relative Activity (%) [3] [%],Amino group transfer activity as amino donor (in words) ([4]; acceptor 7-methoxy-2-tetralone),Relative Activity (%) [4] [%],"Relative activity, Enzyme C [5]","Relative activity, Enzyme A [2, 7]",Amino group transfer activity as amino donor (in words) ([3]; listed as Valanine)
NCCCCN [Putrescine],18,not reactive,0,no activity; also recorded: substantially inactive,0,–,–,–,–,–
"C[C@H](N)c1ccccc1 [(S)-α-phenethylamine, reference compound]",–,highly active,100,active,100,especially high activity,100,–,–,–
NCCCC(=O)O [4-Aminobutyric Acid],–,not reactive,–,–,–,–,–,100,0,–
NCCC(=O)O [β-alanine],100,not reactive,0,substantially inactive,0,–,0,0,0,no activity
NCCS(=O)(=O)O [Taurine],132,not reactive,0,no activity; also recorded: substantially inactive,0,–,–,8,0,–
NCCCCC(N)C(=O)O (racemic) [DL-lysine],–,–,–,no activity; also recorded: substantially inactive,0,–,0,–,–,–
